Data taken from US20150099270A1, “METHOD OF SCREENING PHARMACEUTICALS FOR DRUG INTERACTIONS AND NEPHROTOXICITY” (priority 2013, published 2015).

Key:
[1] = dogs with azotemia, p=0.025; cited from earlier work
[2] = human, in vivo
Text: The purpose of this study is to quantify plasma and urinary acetyl-PAH as a measure of tubular function, in the presence of simultaneous measurement of GFR (iothalamate clearance) in healthy subjects. […] Subjects receiving drugs known to interfere with tubular secretion based on a current review of available literature, or a history of known allergic or adverse reactions to diagnostic iodine containing compounds including iothalamate, or PAH were excluded. Subjects with preexisting liver disease (including hepatitis), increased INR, liver transaminases (AST/ALT), bilirubin, serum albumin<3.0 g/dL. Iothalamate (Conray®, Mallinkrodt), and PAH (Merck) infusions were prepared on the morning of the study visit.
On the study day, each subject reported to the General Clinical Research Unit (GCRC) by 8:00 AM on study visit days. A 6-mL blood sample was be obtained for biochemistries (BUN, serum creatinine) and a spot urine sample was obtained for protein:creatinine ratio. Vital signs (heart rate, blood pressure, respiratory rate) were recorded half-hourly throughout each study visit. Subjects had intravenous catheters inserted into forearm veins of each arm for blood collection and intravenous infusion of iothalamate and PAH. […]
Throughout the study, all blood samples were collected in heparinized (green top) tubes, placed on ice immediately, centrifuged within 15 minutes (4,000 RPM), split into 2 plasma aliquots and frozen at −20° C. until analyzed. […] Urine was be placed on ice immediately after collection, and three 8 mL aliquots were frozen at −20° C. until analyzed. The total volume of urine was measured for each collection interval. A 5 mL aliquot of each IV infusate was collected and frozen at −20° C. until analyzed.
Iothalamate and PAH: Iothalamate and PAH concentrations in plasma and urine will be determined using an HPLC assay method developed in our laboratory. […] Separation is achieved using a C18 column, and effluent is monitored at a wavelength of 254 ηm. […]

HK-2 cells = experiment: PAH metabolism experiment in HK-2 cells (acetyl-PAH formation quantified by HPLC); format: in vitro ADME, human
Description: Acetyl-PAH was quantified by HPLC using a Waters 2690 Separation Module. […] The runtime was 25 minutes for all samples.
HK2 cells were grown in 15 ml of Dulbecco's Modified Eagle Medium (DMEM)/F12 media with 10% Fetal Bovine Serum (FBS) and incubated at 37° C. with 5% CO2. After 5 days of culture, each 75 cm^2 flask of cells was transferred to 2 mls of the culture media and incubated with 200 μg/ml of PAH except for the negative control where no PAH was added. Cells were incubated for 4, 8 and 18 hours each (in triplicate) with or without PAH (control). Cells post incubation were lysed via sonication for 1 minute, then centrifuged at 14,000 RPM for 10 minutes. The supernatant was extracted and acetyl-PAH was quantified by HPLC. After 5 days of culture, the HK2 cell monolayers reached confluence (FIG. 1).
• 1. HK2 cells were grown in 15 ml of Dulbecco's Modified Eagle Medium (DMEM)/F12 media with 10% Fetal Bovine Serum (FBS) and incubated at 37° C. with 5% CO2. […]
Acetyl-PAH was quantified by HPLC using a Waters 2690 Separation Module. […] Quantification of acetyl-PAH formation was determined by calculating the area under the curve for each sample time-point, and determining the cumulative appearance over the entire incubation period (up to 18 hours).

Row | Compound | renal extraction [1] | Rsec (total rate of tubular secretion) [2] [mL/min] | appearance of acetyl-PAH metabolite in urine and plasma [2] | mean (±SD) naPAH metabolite concentration (HK-2 cells; HK-2 cells incubated with PAH, HPLC) | metabolism of PAH to acetyl-PAH (HK-2 cells; HK2 cells, 200 μg/ml PAH, 4, 8 and 18 hours)
1 | CC[N+](CC)(CC)CC [TEA, tetraethylammonium] | 0.80 | – | – | – | –
2 | CC(=O)Nc1ccc(C(=O)NCC(=O)O)cc1 [acetyl-PAH, 2-[(4-acetamidobenzoyl)amino]acetic acid] | – | 581 ± 191 | appears in high quantities in the urine and plasma | increased over time | –
3 | Nc1ccc(C(=O)NCC(=O)O)cc1 [PAH, Para-aminohippuric acid] | 0.57 | 382 ± 154 | – | – | time dependent fashion
